# Test results: ChEMBL document CHEMBL3885861, “Open TG-GATES”
# Species: Rattus norvegicus
# Assay: Open TG-GATES - Regimen: Daily Repeat
# Type: toxicity, organism-based, Sprague-Dawley
# Design: regimen Daily Repeat, gender Male, age 6 weeks
# Settings: in vivo, po, 30 mg/kg, route gavage, dose level Low; for APTT / Bas / Eos / Fbg / Hb / Ht / Lym / MCH / MCHC / MCV / Mono / Neu / PT / Plat / RBC / Ret / WBC: tissue Blood; for KIDNEY_L / KIDNEY_R / KIDNEY_TOTAL: tissue Kidney; for LIVER: tissue Liver; for A/G / ALP / ALT / AST / BUN / CRE / Ca / Cl / DBIL / GLC / IP / K / LDH / Na / PL / RALB / TBIL / TC / TG / TP / gamma-GTP: tissue Plasma
smiles,measurement,setting,value
CC(=O)Nc1ccc2c(c1)Cc1ccccc1-2 [2-ACETYLAMINOFLUORENE],TERMINAL_BW,"72 h, time 3 day",222.5 g
same,APTT,"72 h, time 3 day",18.9 s
same,Bas,"72 h, time 3 day",0.6%
same,Eos,"72 h, time 3 day",1%
same,Fbg,"72 h, time 3 day",226.6 mg/dL
same,Hb,"72 h, time 3 day",14.8 g/dL
same,Ht,"72 h, time 3 day",42.2%
same,Lym,"72 h, time 3 day",81%
same,MCH,"72 h, time 3 day",22.3 pg
same,MCHC,"72 h, time 3 day",35%
same,MCV,"72 h, time 3 day",63.7 fL
same,Mono,"72 h, time 3 day",2.8%
same,Neu,"72 h, time 3 day",14%
same,PT,"72 h, time 3 day",12.3 s
same,Plat,"72 h, time 3 day",131.4 x10_4/uL
same,RBC,"72 h, time 3 day",663 x10_4/ul
same,Ret,"72 h, time 3 day",4.1%
same,WBC,"72 h, time 3 day",118 x10_2/uL
same,KIDNEY_L,"72 h, time 3 day",1 g
same,KIDNEY_R,"72 h, time 3 day",1 g
same,KIDNEY_TOTAL,"72 h, time 3 day",2 g
same,LIVER,"72 h, time 3 day",10.6 g
same,A/G,"72 h, time 3 day",1.5
same,ALP,"72 h, time 3 day",746.6 IU/L
same,ALT,"72 h, time 3 day",26.6 IU/L
same,AST,"72 h, time 3 day",69.2 IU/L
same,BUN,"72 h, time 3 day",12.4 mg/dL
same,CRE,"72 h, time 3 day",0.4 mg/dL
same,Ca,"72 h, time 3 day",10.3 mg/dL
same,Cl,"72 h, time 3 day",102.8 meq/L
same,DBIL,"72 h, time 3 day",0.086 mg/dL
same,GLC,"72 h, time 3 day",196.4 mg/dL
same,IP,"72 h, time 3 day",7.2 mg/dL
same,K,"72 h, time 3 day",4.1 meq/L
same,LDH,"72 h, time 3 day",241 IU/L
same,Na,"72 h, time 3 day",140.2 meq/L
same,PL,"72 h, time 3 day",100.8 mg/dL
same,RALB,"72 h, time 3 day",2.9 g/dL
same,TBIL,"72 h, time 3 day",0.1 mg/dL
same,TC,"72 h, time 3 day",50.2 mg/dL
same,TG,"72 h, time 3 day",77 mg/dL
same,TP,"72 h, time 3 day",5 g/dL
same,gamma-GTP,"72 h, time 3 day",1.2 IU/L
same,TERMINAL_BW,"[…], time 7 day",239.2 g
same,TERMINAL_BW,"[…], time 14 day",259.1 g
same,TERMINAL_BW,"[…], time 28 day",315.1 g
same,APTT,"[…], time 7 day",18.4 s
same,Bas,"[…], time 7 day",0.8%
same,Eos,"[…], time 7 day",1%
same,Fbg,"[…], time 7 day",204 mg/dL
same,Hb,"[…], time 7 day",15.4 g/dL
same,Ht,"[…], time 7 day",42.8%
same,Lym,"[…], time 7 day",82%
same,MCH,"[…], time 7 day",22.2 pg
same,MCHC,"[…], time 7 day",35.9%
same,MCV,"[…], time 7 day",61.9 fL
same,Mono,"[…], time 7 day",3%
same,Neu,"[…], time 7 day",12.6%
same,PT,"[…], time 7 day",13 s
same,Plat,"[…], time 7 day",159.6 x10_4/uL
same,RBC,"[…], time 7 day",692.2 x10_4/ul
same,Ret,"[…], time 7 day",1.8%
same,WBC,"[…], time 7 day",125.9 x10_2/uL
same,APTT,"[…], time 14 day",19.1 s
same,Bas,"[…], time 14 day",1%
same,Eos,"[…], time 14 day",0%
same,Fbg,"[…], time 14 day",102.2 mg/dL
same,Hb,"[…], time 14 day",14.7 g/dL
same,Ht,"[…], time 14 day",42%
same,Lym,"[…], time 14 day",79.8%
same,MCH,"[…], time 14 day",19.7 pg
same,MCHC,"[…], time 14 day",35%
same,MCV,"[…], time 14 day",56.3 fL
same,Mono,"[…], time 14 day",3.2%
same,Neu,"[…], time 14 day",15.6%
same,PT,"[…], time 14 day",14.9 s
same,Plat,"[…], time 14 day",144.2 x10_4/uL
same,RBC,"[…], time 14 day",747.2 x10_4/ul
same,Ret,"[…], time 14 day",1.8%
same,WBC,"[…], time 14 day",145.6 x10_2/uL
same,APTT,"[…], time 28 day",25.4 s
same,Bas,"[…], time 28 day",0.8%
same,Eos,"[…], time 28 day",0.6%
same,Fbg,"[…], time 28 day",78.2 mg/dL
same,Hb,"[…], time 28 day",14 g/dL
same,Ht,"[…], time 28 day",40.8%
same,Lym,"[…], time 28 day",67.6%
same,MCH,"[…], time 28 day",19 pg
same,MCHC,"[…], time 28 day",34.3%
same,MCV,"[…], time 28 day",55.4 fL
same,Mono,"[…], time 28 day",4.2%
same,Neu,"[…], time 28 day",26.4%
same,PT,"[…], time 28 day",19.2 s
same,Plat,"[…], time 28 day",102.7 x10_4/uL
same,RBC,"[…], time 28 day",735.6 x10_4/ul
same,Ret,"[…], time 28 day",5.3%
same,WBC,"[…], time 28 day",274.6 x10_2/uL
same,KIDNEY_L,"[…], time 7 day",1 g
same,KIDNEY_R,"[…], time 7 day",1 g
same,KIDNEY_TOTAL,"[…], time 7 day",2 g
same,KIDNEY_L,"[…], time 14 day",1.1 g
same,KIDNEY_R,"[…], time 14 day",1.1 g
same,KIDNEY_TOTAL,"[…], time 14 day",2.2 g
same,KIDNEY_L,"[…], time 28 day",1.3 g
same,KIDNEY_R,"[…], time 28 day",1.3 g
same,KIDNEY_TOTAL,"[…], time 28 day",2.6 g
same,LIVER,"[…], time 7 day",10.5 g
same,LIVER,"[…], time 14 day",9.9 g
same,LIVER,"[…], time 28 day",10.2 g
same,A/G,"[…], time 7 day",1.4
same,ALP,"[…], time 7 day",1055.8 IU/L
same,ALT,"[…], time 7 day",35 IU/L
same,AST,"[…], time 7 day",88 IU/L
same,BUN,"[…], time 7 day",13.8 mg/dL
same,CRE,"[…], time 7 day",0.5 mg/dL
same,Ca,"[…], time 7 day",10.2 mg/dL
same,Cl,"[…], time 7 day",105.2 meq/L
same,DBIL,"[…], time 7 day",0.096 mg/dL
same,GLC,"[…], time 7 day",182.2 mg/dL
same,IP,"[…], time 7 day",6.4 mg/dL
same,K,"[…], time 7 day",3.9 meq/L
same,LDH,"[…], time 7 day",271 IU/L
same,Na,"[…], time 7 day",140.2 meq/L
same,PL,"[…], time 7 day",110.6 mg/dL
same,RALB,"[…], time 7 day",2.6 g/dL
same,TBIL,"[…], time 7 day",0.2 mg/dL
same,TC,"[…], time 7 day",44.4 mg/dL
same,TG,"[…], time 7 day",115 mg/dL
same,TP,"[…], time 7 day",4.4 g/dL
same,gamma-GTP,"[…], time 7 day",1.6 IU/L
same,A/G,"[…], time 14 day",1.3
same,ALP,"[…], time 14 day",1040.6 IU/L
same,ALT,"[…], time 14 day",42 IU/L
same,AST,"[…], time 14 day",98.6 IU/L
same,BUN,"[…], time 14 day",13 mg/dL
same,CRE,"[…], time 14 day",0.5 mg/dL
same,Ca,"[…], time 14 day",9.4 mg/dL
same,Cl,"[…], time 14 day",104.6 meq/L
same,DBIL,"[…], time 14 day",0.5 mg/dL
same,GLC,"[…], time 14 day",171 mg/dL
same,IP,"[…], time 14 day",7.1 mg/dL
same,K,"[…], time 14 day",3.9 meq/L
same,LDH,"[…], time 14 day",211.2 IU/L
same,Na,"[…], time 14 day",141.2 meq/L
same,PL,"[…], time 14 day",102.4 mg/dL
same,RALB,"[…], time 14 day",2.2 g/dL
same,TBIL,"[…], time 14 day",0.7 mg/dL
same,TC,"[…], time 14 day",40.8 mg/dL
same,TG,"[…], time 14 day",43.8 mg/dL
same,TP,"[…], time 14 day",3.8 g/dL
same,gamma-GTP,"[…], time 14 day",1.4 IU/L
same,A/G,"[…], time 28 day",1
same,ALP,"[…], time 28 day",883 IU/L
same,ALT,"[…], time 28 day",57.8 IU/L
same,AST,"[…], time 28 day",155.4 IU/L
same,BUN,"[…], time 28 day",17.2 mg/dL
same,CRE,"[…], time 28 day",0.4 mg/dL
same,Ca,"[…], time 28 day",8.5 mg/dL
same,Cl,"[…], time 28 day",103.6 meq/L
same,DBIL,"[…], time 28 day",3 mg/dL
same,GLC,"[…], time 28 day",130.6 mg/dL
same,IP,"[…], time 28 day",6.8 mg/dL
same,K,"[…], time 28 day",4.2 meq/L
same,LDH,"[…], time 28 day",252.2 IU/L
same,Na,"[…], time 28 day",140.2 meq/L
same,PL,"[…], time 28 day",120.2 mg/dL
same,RALB,"[…], time 28 day",1.7 g/dL
same,TBIL,"[…], time 28 day",3.8 mg/dL
same,TC,"[…], time 28 day",60.2 mg/dL
same,TG,"[…], time 28 day",30.2 mg/dL
same,TP,"[…], time 28 day",3.4 g/dL
same,gamma-GTP,"[…], time 28 day",25.4 IU/L
